{"source": "patent US7718160B2", "about": "“Radiolabeled compounds and liposomes and their method of making and using same” (The Board of Regents of the University of Texas System, priority 2002, dated 2010)", "type_in_all_cases": "in vivo", "key": {"[1]": {"test": "Normal rat biodistribution of ^186Re-liposomes at 72 hours after intravenous injection"}, "[2]": {"test": "Gamma camera images of normal rats after intravenous injection (^186Re)", "details": "rat, baseline, 1 hour, 4 hours, 24 hours and 72 hours after intravenous injection"}, "[3]": {"test": "Normal rat biodistribution of ^99mTc-liposomes at 20 hours after intravenous injection", "protocol": "For comparison, biodistributions of the ^99mTc-“SNS/S” complexes used for liposome labeling were also performed."}, "[4]": {"test": "Gamma camera images of normal rats after intravenous injection (^99mTc)", "details": "rat, baseline, 1 hour, 4 hours and 20 hours after intravenous injection", "from_the_text": "(H: Heart; S: Spleen; L: Liver; Bo: Bowel; B1: Bladder.)\n(H: Heart; S: Spleen; L: Liver; Bo: Bowel.)\nFrom the images, significant differences between ^99mTc-liposome labeled with ^99mTc-“BMEDA” and ^99mTc-“BMEDA” alone were observed. […] From the images, significant differences between ^99mTc-liposome labeled with ^99mTc-“BMEDA+BT” and ^99mTc-“BMEDA+BT” alone were observed."}}, "note": "“Also recorded” adds a separate entry of the source.", "data": [{"smiles": "CCN(CC)CCN(CCS)CC[S][186Re]1(=[O])[S]CCN(CCN(CC)CC)CC[S]1", "note": "[^186Re-“BMEDA” Alone]", "values": [{"measurement": "% ID/Gram (Average ± Sd), Blood", "setting": "[1]; normal rat", "value": "0.022 ± 0.001", "unit": "% ID/Gram"}, {"measurement": "% ID/Gram (Average ± Sd), Bowel", "setting": "[1]; normal rat", "value": "0.34 ± 0.19", "unit": "% ID/Gram"}, {"measurement": "% ID/Gram (Average ± Sd), Brain", "setting": "[1]; normal rat", "value": "0.0035 ± 0.0007", "unit": "% ID/Gram"}, {"measurement": "% ID/Gram (Average ± Sd), Feces", "setting": "[1]; normal rat", "value": "4.82 ± 1.53", "unit": "% ID/Gram"}, {"measurement": "% ID/Gram (Average ± Sd), Femur", "setting": "[1]; normal rat", "value": "0.014 ± 0.000", "unit": "% ID/Gram"}, {"measurement": "% ID/Gram (Average ± Sd), Heart", "setting": "[1]; normal rat", "value": "0.069 ± 0.007", "unit": "% ID/Gram"}, {"measurement": "% ID/Gram (Average ± Sd), Kidney", "setting": "[1]; normal rat", "value": "4.49 ± 0.37", "unit": "% ID/Gram"}, {"measurement": "% ID/Gram (Average ± Sd), Liver", "setting": "[1]; normal rat", "value": "0.54 ± 0.05", "unit": "% ID/Gram"}, {"measurement": "% ID/Gram (Average ± Sd), Lung", "setting": "[1]; normal rat", "value": "0.23 ± 0.03", "unit": "% ID/Gram"}, {"measurement": "% ID/Gram (Average ± Sd), Muscle", "setting": "[1]; normal rat", "value": "0.0048 ± 0.0005", "unit": "% ID/Gram"}, {"measurement": "% ID/Gram (Average ± Sd), Skin", "setting": "[1]; normal rat", "value": "0.029 ± 0.012", "unit": "% ID/Gram"}, {"measurement": "% ID/Gram (Average ± Sd), Spleen", "setting": "[1]; normal rat", "value": "0.38 ± 0.14", "unit": "% ID/Gram"}, {"measurement": "% ID/Gram (Average ± Sd), Testis", "setting": "[1]; normal rat", "value": "0.015 ± 0.003", "unit": "% ID/Gram"}, {"measurement": "% ID/Gram (Average ± Sd), Urine", "setting": "[1]; normal rat", "value": "0.79 ± 0.08", "unit": "% ID/Gram"}, {"measurement": "% ID/Organ (Average ± Sd), Blood", "setting": "[1]; normal rat", "value": "0.49 ± 0.04", "unit": "% ID/Organ"}, {"measurement": "% ID/Organ (Average ± Sd), Bowel", "setting": "[1]; normal rat", "value": "6.67 ± 3.31", "unit": "% ID/Organ"}, {"measurement": "% ID/Organ (Average ± Sd), Brain", "setting": "[1]; normal rat", "value": "0.0052 ± 0.0007", "unit": "% ID/Organ"}, {"measurement": "% ID/Organ (Average ± Sd), Feces", "setting": "[1]; normal rat", "value": "20.54 ± 4.35", "unit": "% ID/Organ"}, {"measurement": "% ID/Organ (Average ± Sd), Femur", "setting": "[1]; normal rat", "value": "0.58 ± 0.06", "unit": "% ID/Organ"}, {"measurement": "% ID/Organ (Average ± Sd), Heart", "setting": "[1]; normal rat", "value": "0.076 ± 0.005", "unit": "% ID/Organ"}, {"measurement": "% ID/Organ (Average ± Sd), Kidney", "setting": "[1]; normal rat", "value": "10.42 ± 0.93", "unit": "% ID/Organ"}, {"measurement": "% ID/Organ (Average ± Sd), Liver", "setting": "[1]; normal rat", "value": "5.97 ± 0.35", "unit": "% ID/Organ"}, {"measurement": "% ID/Organ (Average ± Sd), Lung", "setting": "[1]; normal rat", "value": "0.37 ± 0.06", "unit": "% ID/Organ"}, {"measurement": "% ID/Organ (Average ± Sd), Muscle", "setting": "[1]; normal rat", "value": "0.79 ± 0.07", "unit": "% ID/Organ"}, {"measurement": "% ID/Organ (Average ± Sd), Skin", "setting": "[1]; normal rat", "value": "1.48 ± 0.51", "unit": "% ID/Organ"}, {"measurement": "% ID/Organ (Average ± Sd), Spleen", "setting": "[1]; normal rat", "value": "0.21 ± 0.05", "unit": "% ID/Organ"}, {"measurement": "% ID/Organ (Average ± Sd), Testis", "setting": "[1]; normal rat", "value": "0.058 ± 0.004", "unit": "% ID/Organ"}, {"measurement": "% ID/Organ (Average ± Sd), Urine", "setting": "[1]; normal rat", "value": "26.93 ± 4.23", "unit": "% ID/Organ"}, {"measurement": "spleen accumulation", "setting": "[1]; rat", "value": "did not show the spleen accumulation behavior"}, {"measurement": "distribution seen in gamma camera images", "setting": "[2]", "value": "significant excretion from the hepatobiliary system and no apparent spleen accumulation; also recorded: fast blood clearance, fast excretion into bowel and urine, and no spleen accumulation"}, {"measurement": "distribution seen in gamma camera images", "setting": "[2]; listed as 186Re-“BMBDA” alone", "value": "fast blood clearance, fast excretion into bowel and urine, and no spleen accumulation"}]}, {"smiles": "CCN(CC)CCN(CCS)CC[S][99Tc]1(=[O])[S]CCN(CCN(CC)CC)CC[S]1", "note": "[^99mTc-“BMEDA” alone]", "values": [{"measurement": "distribution behavior", "setting": "[3]", "value": "does not"}, {"measurement": "distribution seen in gamma camera images", "setting": "[4]", "value": "fast blood clearance, fast excretion into bowel and urine, and no spleen accumulation"}]}]}
